33 compounds from patent publication US9790221B2, “Heteroaryl compounds as IRAK inhibitors and uses thereof” (Merck Patent GmbH, priority 2014, dated 2017) can be followed below.

The target of test [1] is IRAK4 (Homo sapiens (Human), UniProt Q9NWZ3). As to the kind of experiment: IRAK4 enzymatic assay. The format is biochemical. On the procedure:
IRAK4 is a human purified recombinant enzyme ([…]. IRAK4 hydrolyses ATP, autophosphorylates and phosphorylates a Serine/Threonine generic peptidic substrate (STK: 61ST1BLC from CisBio International based in Bagnols/Cèze FR).
Measurement of IRAK-4 inhibition was performed in streptavidin coated 384well FlashPlate (PerkinElmer #SMP410A). His-TEV-IRAK4 (20 ng/well), ATP (2 μM, [^33P]ATP 0.25 µCi/well), STK1-biotin peptide (300 nM) and compounds in DMSO (range of concentrations from 20 µM to 1 nM) or controls (2% DMSO) were incubated for 3 hours at 30° C. in assay buffer: Hepes pH7.0 50 mM, Fatty acid-free BSA 0.1%, Dithiothreitol DTT 2 mM, MgCl2 10 mM, EGTA 0.5 mM, Tween-20 0.01%, MnCl2 5 mM.
Kinase reaction was stopped by addition of EDTA. Supernatant was discarded, plates were washed three times with 150 mM NaCl and radioactivity was then measured in a Microbeta Trilux reader.

The target of test [2] is IRAK1 (His-TEV-IRAK1 (194-712)) (Homo sapiens (Human), UniProt P51617). As to the kind of experiment: IRAK1 enzymatic assay. The format is biochemical. On the procedure: IRAK1 is a human purified recombinant enzyme (His-TEV-IRAK1 (194-712)). In this assay, IRAK-1 hydrolyses ATP and autophosphorylates. Measurement of IRAK-1 inhibition was performed in streptavidin coated 384well FlashPlate (PerkinElmer #SMP410A).
His-TEV-IRAK-1 (15 ng/well), ATP (1 μM, [33P]ATP 0.25 μCi/well) and compounds in DMSO (range of concentrations from 20 µM to 1 nM) or controls (2% DMSO) were incubated for 3 hours at 30° C. in assay buffer: Hepes pH7.0 50 mM, Fatty acid-free BSA 0.1%, Dithiothreitol DTT 2 mM, MgCl2 10 mM, EGTA 0.5 mM, Triton-X-100 0.01%. Kinase reaction was stopped by addition of EDTA. Supernatant was discarded, plates were washed three times with 150 mM NaCl and radioactivity was then measured in a Microbeta Trilux reader.

The structures appear in SMILES notation. Where a name gives a salt, the structure may show the parent alone. Where only a bound is given, the exact number is not on record here.

IRAK1 (His-TEV-IRAK1 (194-712)), sequence (P51617 194-712): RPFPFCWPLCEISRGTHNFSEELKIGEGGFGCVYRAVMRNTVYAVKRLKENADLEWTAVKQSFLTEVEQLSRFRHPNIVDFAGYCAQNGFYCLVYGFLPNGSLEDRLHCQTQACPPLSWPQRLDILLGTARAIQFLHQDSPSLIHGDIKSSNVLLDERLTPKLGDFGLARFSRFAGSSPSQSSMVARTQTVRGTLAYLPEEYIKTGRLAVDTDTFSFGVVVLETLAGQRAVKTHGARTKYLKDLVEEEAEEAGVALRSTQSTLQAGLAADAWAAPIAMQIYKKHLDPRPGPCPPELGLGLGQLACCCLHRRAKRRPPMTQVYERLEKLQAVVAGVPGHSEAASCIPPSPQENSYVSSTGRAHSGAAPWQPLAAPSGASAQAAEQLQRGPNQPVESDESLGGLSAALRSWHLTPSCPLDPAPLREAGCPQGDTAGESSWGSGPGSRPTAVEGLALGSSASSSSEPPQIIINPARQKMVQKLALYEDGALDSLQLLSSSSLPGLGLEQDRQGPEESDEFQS
IRAK4, sequence (Q9NWZ3 whole entry): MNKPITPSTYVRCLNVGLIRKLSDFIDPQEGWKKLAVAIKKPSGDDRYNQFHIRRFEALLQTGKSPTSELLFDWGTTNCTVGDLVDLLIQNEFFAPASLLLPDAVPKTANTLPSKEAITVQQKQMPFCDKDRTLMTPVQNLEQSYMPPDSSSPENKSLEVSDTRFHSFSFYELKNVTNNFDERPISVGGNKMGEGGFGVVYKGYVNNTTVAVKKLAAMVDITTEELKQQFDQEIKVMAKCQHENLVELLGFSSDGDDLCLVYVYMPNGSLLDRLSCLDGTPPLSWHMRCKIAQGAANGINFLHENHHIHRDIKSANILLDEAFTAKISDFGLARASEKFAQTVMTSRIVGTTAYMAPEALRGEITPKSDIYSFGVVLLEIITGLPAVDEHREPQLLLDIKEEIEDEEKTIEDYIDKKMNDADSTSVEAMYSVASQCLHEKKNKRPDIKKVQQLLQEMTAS

A word on the IC50: it is the midpoint of a concentration-inhibition curve. A higher IC50 goes with a need for much substance. For the compound `Cn1cc(-c2cccc(-c3ncc(-c4ccn(C)n4)c(N[C@H]4CCC[C@@H]4O)n3)c2)cn1` (racemic) [Example 95], the half-maximal inhibitory concentration (IC50) is under 100 nM in test [1] and over 5000 nM in test [2].
For the compound `Cn1cc(-c2cccc(-c3ncc(-c4ccn(C)n4)c(NC[C@H]4CCNC[C@H]4O)n3)c2)cn1` (racemic) [Example 116], the IC50 is 100 to 1000 nM in test [1] and over 5000 nM in test [2].
Regarding `Cn1cc(-c2cccc(-c3ncc(-c4cnn(C)c4)c(NC[C@H]4CCNC[C@H]4O)n3)c2)cn1` (racemic) [Example 126], the 50% inhibitory concentration (IC50) was 100 to 1000 nM in test [1] and over 5000 nM in test [2].
The corresponding values for `Cn1cc(-c2cccc(-c3ncc(-c4cnn(C)c4)c(NC[C@H]4CC[C@@H](O)C4)n3)c2)cn1` (racemic) [Example 164] are under 100 nM and 1000 to 5000 nM.
The corresponding values for `Cn1cc(-c2cccc(-c3ncc(-c4cnn(C)c4)c(NC[C@H]4CC[C@H](O)C4)n3)c2)cn1` (racemic) [Example 165] are under 100 nM and 100 to 1000 nM.
For `Cn1cc(-c2cccc(-c3ncc(-c4cnn(C)c4)c(NCC4CCOC4)n3)c2)cn1` (racemic) [Example 166] the same measures were under 100 nM and 100 to 1000 nM.
For the compound `Cn1cc(-c2cccc(-c3ncc(-c4cnn(C)c4)c(N[C@@H]4CC[C@H](NS(C)(=O)=O)C4)n3)c2)cn1` (racemic) [Example 176], the figures for the concentration for half-maximal inhibition (IC50) in test [1] and in test [2] were under 100 nM and 1000 to 5000 nM, respectively.
As to `CC(=O)N[C@@H]1CCC[C@@H]1CNc1nc(-c2cccc(-c3cnn(C)c3)c2)ncc1-c1cnn(C)c1` (relative stereo) [Example 206, N-[(Cis)-2-({5-(1-Methyl-1H-pyrazol-4-yl)-2-[3-(1-methyl-1H-pyrazol-4-yl)-phenyl]-pyrimidin-4-ylamino}-methyl)-cyclopentyl]-acetamide], the IC50 in test [1] is 100 to 1000 nM; in test [2] it was over 5000 nM.
The corresponding values for `Cn1cc(-c2cccc(-c3ccc(-c4cnn(C5CCNCC5)c4)cn3)n2)cn1` [Example 2, 6′-(1-Methyl-1H-pyrazol-4-yl)-5-(1-piperidin-4-yl-1H-pyrazol-4-yl)-[2,2′]bipyridinyl] are 100 to 1000 nM and 1000 to 5000 nM.
In turn, `Cn1cc(-c2cccc(-c3ncc(-c4cnn(C)c4)c(NCC4CCCN(C(=O)OC(C)(C)C)C4)n3)c2)cn1` (centres unmarked) [Example 3, 3-({5-(1-Methyl-1H-pyrazol-4-yl)-2-[3-(1-methyl-1H-pyrazol-4-yl)-phenyl]-pyrimidin-4-ylamino}-methyl)-piperidine-1-carboxylic Acid Tert-Butyl Ester] yielded an IC50 in test [2] of 1000 to 5000 nM.
Consider `Cn1cc(-c2cccc(-c3ncc(-c4cnn(C)c4)c(NCC4CCCNC4)n3)c2)cn1` (centres unmarked) [Example 4, {5-(1-Methyl-1H-pyrazol-4-yl)-2-[3-(1-methyl-1H-pyrazol-4-yl)-phenyl]-pyrimidin-4-yl}-piperidin-3-ylmethyl-amine Hydrochloride], for which the IC50 in test [1] and in test [2] was 1000 to 5000 nM throughout.
`Cn1cc(-c2cccc(-c3ncc(-c4cnn(C)c4)c(N4CCCC(CNC(=O)OC(C)(C)C)C4)n3)c2)cn1` (centres unmarked) [Example 5, (1-{5-(1-Methyl-1H-pyrazol-4-yl)-2-[3-(1-methyl-1H-pyrazol-4-yl)-phenyl]-pyrimidin-4-yl}-piperidin-3-ylmethyl)-carbamic Acid Tert-Butyl Ester]: the results for the IC50 in test [1] and in test [2] were over 5000 nM and 1000 to 5000 nM, respectively.
`Cn1cc(-c2cccc(-c3ncc(-c4cnn(C)c4)c(N4CCCC(CN)C4)n3)c2)cn1` (centres unmarked) [Example 6, C-(1-{5-(1-Methyl-1H-pyrazol-4-yl)-2-[3-(1-methyl-1H-pyrazol-4-yl)-phenyl]-pyrimidin-4-yl}-piperidin-3-yl)-methylamine Hydrochoride]: the 50% inhibitory concentration (IC50) was 1000 to 5000 nM in test [1] and over 5000 nM in test [2].
For `Cn1cc(-c2cccc(-c3ncc(-c4ccn(C)n4)c(OCC4CCCCO4)n3)c2)cn1` (centres unmarked) [Example 8, 5-(1-Methyl-1H-pyrazol-3-yl)-2-[3-(1-methyl-1H-pyrazol-4-yl)-phenyl]-4-(tetrahydro-pyran-2-ylmethoxy)-pyrimidine] the same measures were 1000 to 5000 nM and over 5000 nM.
`Cn1cc(-c2cccc(-c3ncc(-c4ccn(C)n4)c(NCC4CCNCC4)n3)c2)cn1` [Example 12, {5-(1-Methyl-1H-pyrazol-3-yl)-2-[3-(1-methyl-1H-pyrazol-4-yl)-phenyl]-pyrimidin-4-yl}-piperidin-4-ylmethyl-amine]: the half-inhibitory concentration (IC50) in test [1] and in test [2] was over 5000 nM each time.
On to `Cn1cc(-c2cccc(-c3ncc(-c4cnn(C)c4)c(NC4CCN(S(C)(=O)=O)CC4)n3)c2)cn1` [Example 14, (1-Methanesulfonyl-piperidin-4-yl)-{5-(1-methyl-1H-pyrazol-4-yl)-2-[3-(1-methyl-1H-pyrazol-4-yl)-phenyl]-pyrimidin-4-yl}-amine], for which the IC50 in test [1] and in test [2] was under 100 nM throughout.
On to `Cn1cc(-c2cccc(-c3cc(C(F)(F)F)c(-c4cnn(C5CCOCC5)c4)cn3)c2)cn1` [Example 23, 2-[3-(1-Methyl-1H-pyrazol-4-yl)-phenyl]-5-[1-(tetrahydro-pyran-4-yl)-1H-pyrazol-4-yl]-4-trifluoromethyl-pyridine], for which the IC50 in test [1] is 1000 to 5000 nM; in test [2] it was over 5000 nM.
For the compound `Cc1cc(-c2cccc(-c3cnn(C)c3)c2)ncc1-c1cnn(C2CCOCC2)c1` [Example 24, 4-Methyl-2-[3-(1-methyl-1H-pyrazol-4-yl)-phenyl]-5-[1-(tetrahydro-pyran-4-yl)-1H-pyrazol-4-yl]-pyridine], the IC50 in test [1] is 1000 to 5000 nM; in test [2], over 5000 nM.
The corresponding values for `Cn1cc(-c2cccc(-c3ncc(-c4cnn(C)c4)c(NCC(N)=O)n3)c2)cn1` [Example 25, 2-{5-(1-Methyl-1H-pyrazol-4-yl)-2-[3-(1-methyl-1H-pyrazol-4-yl)-phenyl]-pyrimidin-4-ylamino}-acetamide formate] are 1000 to 5000 nM and over 5000 nM.
The corresponding values for `Cn1cc(-c2cccc(-c3ncc(-c4cnn(C)c4)c(NCC(=O)O)n3)c2)cn1` [Example 26, {5-(1-Methyl-1H-pyrazol-4-yl)-2-[3-(1-methyl-1H-pyrazol-4-yl)-phenyl]-pyrimidin-4-ylamino}-acetic Acid Formate] are over 5000 nM and over 5000 nM.
For `Cn1cc(-c2cccc(-c3ncc(-c4ccn(C)n4)c(NC4CCC4)n3)c2)cn1` [Example 27, Cyclobutyl-{5-(1-methyl-1H-pyrazol-3-yl)-2-[3-(1-methyl-1H-pyrazol-4-yl)-phenyl]-pyrimidin-4-yl}-amine] the same measures were 100 to 1000 nM and 1000 to 5000 nM.
For the compound `Cn1cc(-c2cccc(-c3ncc(-c4ccn(C)n4)c(NC4CC4)n3)c2)cn1` [Example 29], the concentration for half-maximal inhibition (IC50) in test [1] was 100 to 1000 nM; in test [2] it was 1000 to 5000 nM.
The corresponding values for `Cn1cc(-c2cccc(-c3ncc(-c4cnn(C)c4)c(NC4CC4)n3)c2)cn1` [Example 30] are 100 to 1000 nM and 100 to 1000 nM.
The corresponding values for `Cn1cc(-c2cccc(-c3ncc(-c4cnn(C)c4)c(NC4CCC4)n3)c2)cn1` [Example 31] are 100 to 1000 nM and 100 to 1000 nM.
The corresponding values for `Cn1cc(-c2cccc(-c3ncc(-c4ccn(C)n4)c(NC4CCCC4)n3)c2)cn1` [Example 33] are 1000 to 5000 nM and 1000 to 5000 nM.
`Cn1cc(-c2cccc(-c3ncc(-c4cnn(C)c4)c(NCCN)n3)c2)cn1` [Example 34]: the half-maximal inhibitory concentration (IC50) was 1000 to 5000 nM in test [1] and over 5000 nM in test [2].
The corresponding values for `Cn1cc(-c2cccc(-c3ncc(-c4cnn(C)c4)c(NCCN4CCCC4=O)n3)c2)cn1` [Example 39] are 1000 to 5000 nM and over 5000 nM.
The corresponding values for `Cn1cc(-c2cccc(-c3ncc(-c4cnn(C)c4)c(NCCCN4CCCC4=O)n3)c2)cn1` [Example 40] are 1000 to 5000 nM and over 5000 nM.
As for `Cn1cc(-c2cccc(-c3ncc(-c4cnn(C)c4)c(NCCCN4CCOCC4)n3)c2)cn1` [Example 51], the figures for the IC50 in test [1] and in test [2] were 1000 to 5000 nM and over 5000 nM, respectively.
The corresponding values for `Cn1cc(-c2cccc(-c3ncc(-c4cnn(C)c4)c(NCCN4CCNC4=O)n3)c2)cn1` [Example 58] are 1000 to 5000 nM and 1000 to 5000 nM.
The corresponding values for `Cn1cc(-c2cccc(-c3ncc(-c4cnn(C)c4)c(NCC4CNCCO4)n3)c2)cn1` (centres unmarked) [Example 59] are 100 to 1000 nM and over 5000 nM.
The corresponding values for `Cn1cc(-c2cccc(-c3ncc(-c4cnn(C)c4)c(NC[C@@H]4CCC(=O)N4)n3)c2)cn1` [Example 61] are 100 to 1000 nM and over 5000 nM.
Take `Cn1cc(-c2cccc(-c3ncc(-c4cnn(C)c4)c(NC[C@H]4CCNC4)n3)c2)cn1` [Example 64]: the half-maximal inhibitory concentration (IC50) in test [1] fell in the range of 100 to 1000 nM; in test [2], 1000 to 5000 nM.
